Patent EP1198478B1, “SOMATOSTATIN ANALOGS AND THEIR USE FOR THE TREATMENT OF CANCER” (Dabur Research Foundation, priority 2000, dated 2002)
Where “and” joins values, the source holds several entries; their conditions need not be identical. Equal entries are not always repeated.

Experiments:
U87MG (Glioblastoma) = test: MTT cytotoxicity assay, U87MG cells; format: cell-based; conditions: 48 hours
Text: (§1) The cytotoxic effect of peptides SEQ ID NO: 2, SEQ ID NO: 3, SEQ ID NO: 6, and SEQ ID NO: 9, was studied by MTT assay which is based on the principle of uptake of MTT [3-[4,5-dimethylthiazol-2-yl]-2,5-diphenyl tetrazolium bromide], a tetrazolium salt by the metabolically active cells where it is metabolized by active mitochondria into a blue colored formazan product which can be read spectrophotometrically. Briefly, tumor cells PTC (primary human colon cancer cell line), KB (Oral squamous), U87MG (Glioblastoma), HBL100 (Breast), HeP2 (Laryngeal), ECV304 (Endothelial), PA-1 (Ovary) and L132 (Lung) were incubated with the peptide analogs for 48 hours at 37°C in a 96-well culture plate, followed by the addition of 100 µg MTT and further incubation of 1 hour. The formazan crystals formed inside the cells were dissolved with a detergent comprising 10% Sodium dodecyl sulfate and 0.01 N HCl and optical density read on a multiscan ELISA reader. The optical density was directly proportional to the number of proliferating and metabolically active cells.

PA-1 (Ovary) = test: MTT cytotoxicity assay, PA-1 cells; format: cell-based; conditions: 48 hours
Text: as §1

[1] = tested on: PTC (primary human colon cancer cell line); test: MTT cytotoxicity assay, PTC cells; format: cell-based; conditions: 48 hours
Text: as §1

HeP2 (Laryngeal) = test: MTT cytotoxicity assay, HeP2 cells; format: cell-based; conditions: 48 hours
Text: as §1

[2] = tested on: human colon adenocarcinoma (PTC) xenografts; test: In vivo antitumor activity on primary tumor (colon) xenografted mice; set-up: species or system Balb/c athymic mice; conditions: for tumor volumes, Avg: average of three animals; for tumor volumes of individual tumor bearing animals: individual animals (IV, V, VI for SEQ ID NO: 2; I, II, III for SEQ ID NO: 3)
Method: The antitumor activity of SEQ ID NO:2 and SEQ ID NO:3 was studied in human colon adenocarcinoma (PTC) xenografts in nude mice. PTC tumor xenografts were grown in Balb/c athymic mice by subcutaneous inoculation of a single cell suspension of PTC cells (15 X10^6 cells/ 100µl). The tumor bearing animals were divided into 3 groups of three animals each including one group comprising untreated control animals. Treatment with novel somatostatin analogs was initiated when the average tumor volumes, as measured using a vernier caliper, were between 400-800 mm^3. Solutions of SEQ ID NO:2 and SEQ ID NO:3 were prepared at a concentration of 85 µg/ml and intravenously administered to the assigned group of tumor bearing animals at a dose of 8.5 µg/100 µl twice a day so that the total dose of […] was administered to each animal. The treatment was continued for a period of 10 days.
The antitumor activity of the compounds was monitored by measuring tumor volumes every fourth day using the formula W*W*L*.04 (W = smaller diameter, L = larger diameter). The percentage inhibition of tumor growth was calculated using the formula (1-tumor volume-treated/tumor volume control)* 100.

L132 (Lung) = test: MTT cytotoxicity assay, L132 cells; format: cell-based; conditions: 48 hours
Text: as §1

ECV304 (Endothelial) = test: MTT cytotoxicity assay, ECV304 cells; format: cell-based; conditions: 48 hours
Text: as §1

HBL100 (Breast) = test: MTT cytotoxicity assay, HBL100 cells; format: cell-based; conditions: 48 hours
Text: as §1

KB (Oral squamous) = test: MTT cytotoxicity assay, KB cells; format: cell-based; conditions: 48 hours
Text: as §1

[3] = day 9, intravenously 8.5 µg/100 µl twice a day, 10 days
[4] = day 13, intravenously 8.5 µg/100 µl twice a day, 10 days
[5] = day 18, intravenously 8.5 µg/100 µl twice a day, 10 days
[6] = day 21, intravenously 8.5 µg/100 µl twice a day, 10 days

Q: What does the source list for “D-Phe-Cys-Tyr-D-Trp-Orn-Deg-Pen-Thr-NH2 [SEQ ID NO: 2]”?
A: Percentage cytotoxicity (U87MG (Glioblastoma); 1nM): 22.8 ± 3.5%; Percentage cytotoxicity (U87MG (Glioblastoma); 10 nM): 41.9 ± 2.4%; Percentage cytotoxicity (U87MG (Glioblastoma); 1µM): 33.9 ± 1.2%; Percentage cytotoxicity (U87MG (Glioblastoma); 100n M): 39.5 ± 1.4%; Percentage cytotoxicity (PA-1 (Ovary); 1nM): 29.5 ± 24%; Percentage cytotoxicity (PA-1 (Ovary); 10 nM): 27.9 ± 3.4%; Percentage cytotoxicity (PA-1 (Ovary); 1µM): 12.8 ± 3.3%; Percentage cytotoxicity (PA-1 (Ovary); 100n M): 22.9 ± 2.3%; Percentage cytotoxicity ([1]; 1nM): 40 ± 0.5%; Percentage cytotoxicity ([1]; 10 nM): 14 ± 2.9%; Percentage cytotoxicity ([1]; 1µM): 9.0 ± 3.2%; Percentage cytotoxicity ([1]; 100n M): 20 ± 1.5%; Percentage cytotoxicity (HeP2 (Laryngeal); 1nM): 14.9 ± 3.2%; Percentage cytotoxicity (HeP2 (Laryngeal); 10 nM): 29.7 ± 4.4%; Percentage cytotoxicity (HeP2 (Laryngeal); 1µM): 10.0 ± 2.4%; Percentage cytotoxicity (HeP2 (Laryngeal); 100n M): 13.0 ± 3.5%; tumor volumes, Avg ([2]; day 0, before treatment): 0 mm^3; tumor volumes of individual tumor bearing animals ([2]; day 0, before treatment): 0 mm^3; tumor volumes, Avg [2, 3]: 654 mm^3; tumor volumes of individual tumor bearing animals [2, 3]: 480 mm^3 and 678 mm^3 and 806 mm^3; tumor volumes, Avg [2, 4]: 1927 mm^3; tumor volumes of individual tumor bearing animals [2, 4]: 1254 mm^3 and 2196 mm^3 and 2333 mm^3; tumor volumes, Avg [2, 5]: 3886 mm^3; tumor volumes of individual tumor bearing animals [2, 5]: 1965 mm^3 and 5240 mm^3 and 4453 mm^3; percentage inhibition of tumor growth ([2]; day 21, as compared to controls, (1-tumor volume-treated/tumor volume control)* 100, intravenously 8.5 µg/100 µl twice a day, 10 days): 57.1%; tumor volumes, Avg [2, 6]: 3860 mm^3; tumor volumes of individual tumor bearing animals [2, 6]: 491 mm^3 and 4839 mm^3 and 6250 mm^3; Percentage cytotoxicity (L132 (Lung); 1nM): 12.7 ± 2.9%; Percentage cytotoxicity (L132 (Lung); 10 nM): 23.4 ± 4.2%; Percentage cytotoxicity (L132 (Lung); 1µM): 17.7 ± 5.5%; Percentage cytotoxicity (L132 (Lung); 100n M): 22.8 ± 4.6%; Percentage cytotoxicity (ECV304 (Endothelial); 1nM): 22.8 ± 3.9%; Percentage cytotoxicity (ECV304 (Endothelial); 10 nM): 19.8 ± 3.3%; Percentage cytotoxicity (ECV304 (Endothelial); 1µM): 6.0 ± 2.9%; Percentage cytotoxicity (ECV304 (Endothelial); 100n M): 14.9 ± 2.9%; Percentage cytotoxicity (HBL100 (Breast); 1nM): 19.4 ± 4.5%; Percentage cytotoxicity (HBL100 (Breast); 10 nM): 22.8 ± 1.8%; Percentage cytotoxicity (HBL100 (Breast); 1µM): 10.6 ± 1.4%; Percentage cytotoxicity (HBL100 (Breast); 100n M): 15.7 ± 3.5%; Percentage cytotoxicity (KB (Oral squamous); 1nM): 28.0 ± 3.2%; Percentage cytotoxicity (KB (Oral squamous); 10 nM): 34.9 ± 4.6%; Percentage cytotoxicity (KB (Oral squamous); 1µM): 12.0 ± 4.3%; Percentage cytotoxicity (KB (Oral squamous); 100n M): 19.0 ± 5.2%
